{"source": "patent US7776888B2", "about": "“Herbicides” (Syngenta Crop Protection, Inc., priority 2002, dated 2010)", "format_in_all_cases": "in vivo", "key": {"[1]": {"system": "Polygonum", "experiment": "Comparison test with prior art compound, post-emergence herbicidal action (Example B3)", "conditions": "15 gr/ha, rating scale 10=total damage, 0=no action", "procedure": "(§1) […] The test plants are then grown on in a greenhouse under optimum conditions. After a test duration of about 18 days, the test is evaluated in accordance with a scale of ten ratings (10=total damage, 0=no action). Ratings of from 10 to 6 (especially from 10 to 7) indicate good to very good herbicidal action. […] Examples of the good herbicidal action of the compounds are given in Table B2: The post-emergence herbicidal action of compound No. 1.0411 according to the invention is compared with compound “A” from WO 01/94339:"}, "[2]": {"system": "Brachiaria", "experiment": "Comparison test with prior art compound, post-emergence herbicidal action (Example B3)", "conditions": "15 gr/ha, rating scale 10=total damage, 0=no action", "procedure": "as §1"}, "[3]": {"system": "Galium", "experiment": "Comparison test with prior art compound, post-emergence herbicidal action (Example B3)", "conditions": "15 gr/ha, rating scale 10=total damage, 0=no action", "procedure": "as §1"}, "[4]": {"system": "Rottboelia", "experiment": "Comparison test with prior art compound, post-emergence herbicidal action (Example B3)", "conditions": "15 gr/ha, rating scale 10=total damage, 0=no action", "procedure": "as §1"}, "[5]": {"system": "Sinapis", "experiment": "Comparison test with prior art compound, post-emergence herbicidal action (Example B3)", "conditions": "15 gr/ha, rating scale 10=total damage, 0=no action", "procedure": "as §1"}, "[6]": {"system": "Sida", "experiment": "Comparison test with prior art compound, post-emergence herbicidal action (Example B3)", "conditions": "15 gr/ha, rating scale 10=total damage, 0=no action", "procedure": "as §1"}, "[7]": {"system": "weeds", "experiment": "Comparison test post-emergence (Example B3), overall", "conditions": "rate of application of 15 g/ha", "from_the_text": "This enhanced action was not to be expected in view of the structural similarity of the compounds."}, "[8]": {"system": "Stellaria", "experiment": "Post-emergence herbicidal action (Example B2)", "conditions": "250 gr/ha, sprayed at 4- to 6-leaf stage, evaluated after about 18 days; scale 10=total damage, 0=no action", "procedure": "(§2) In a greenhouse, monocotyledonous and dicotyledonous test plants are grown in standard soil in plastic pots and at the 4- to 6-leaf stage are sprayed with an aqueous suspension of the test compounds of formula I prepared from a 25% wettable powder (Example F3, b) according to WO 97/34485) or with an emulsion of the test compounds of formula I prepared from a 25% emulsifiable concentrate (Example F1, c) according to WO 97/34485), in a concentration corresponding to 125 g or 250 g of active ingredient/ha (500 liters of water/ha). The test plants are then grown on in a greenhouse under optimum conditions. After a test duration of about 18 days, the test is evaluated in accordance with a scale of ten ratings (10=total damage, 0=no action). Ratings of from 10 to 6 (especially from 10 to 7) indicate good to very good herbicidal action."}, "[9]": {"system": "Chenopodium", "experiment": "Post-emergence herbicidal action (Example B2)", "conditions": "250 gr/ha, sprayed at 4- to 6-leaf stage, evaluated after about 18 days; scale 10=total damage, 0=no action", "procedure": "as §2"}, "[10]": {"system": "Ipomea", "experiment": "Post-emergence herbicidal action (Example B2)", "conditions": "250 gr/ha, sprayed at 4- to 6-leaf stage, evaluated after about 18 days; scale 10=total damage, 0=no action", "procedure": "as §2"}, "[11]": {"system": "Amaranthus", "experiment": "Post-emergence herbicidal action (Example B2)", "conditions": "250 gr/ha, sprayed at 4- to 6-leaf stage, evaluated after about 18 days; scale 10=total damage, 0=no action", "procedure": "as §2"}, "[12]": {"system": "Echinochloa", "experiment": "Pre-emergence herbicidal action (Example B1)", "conditions": "250 gr/ha, sprayed immediately after sowing, evaluated after 3 weeks; scale of ten ratings 10=total damage, 0=no action", "from_the_text": "(§3) Monocotyledonous and dicotyledonous test plants are sown in standard soil in plastic pots. Immediately after sowing, the test compounds, in the form of an aqueous suspension (prepared from a 25% wettable powder (Example F3, b) according to WO 97/34485) or in the form of an emulsion (prepared from a 25% emulsifiable concentrate (Example F1, c)), are applied by spraying in a concentration corresponding to 125 g or 250 g of active ingredient/ha (500 liters of water/ha). The test plants are then grown in a greenhouse under optimum conditions. After a test duration of 3 weeks, the test is evaluated in accordance with a scale of ten ratings (10=total damage, 0=no action). Ratings of from 10 to 6 (especially from 10 to 8) indicate good to very good herbicidal action."}, "[13]": {"system": "Chenopodium", "experiment": "Pre-emergence herbicidal action (Example B1)", "conditions": "250 gr/ha, sprayed immediately after sowing, evaluated after 3 weeks; scale of ten ratings 10=total damage, 0=no action", "from_the_text": "as §3"}, "[14]": {"system": "Kochia", "experiment": "Pre-emergence herbicidal action (Example B1)", "conditions": "250 gr/ha, sprayed immediately after sowing, evaluated after 3 weeks; scale of ten ratings 10=total damage, 0=no action", "from_the_text": "as §3"}, "[15]": {"system": "Abutilon", "experiment": "Pre-emergence herbicidal action (Example B1)", "conditions": "250 gr/ha, sprayed immediately after sowing, evaluated after 3 weeks; scale of ten ratings 10=total damage, 0=no action", "from_the_text": "as §3"}, "[16]": {"system": "Amaranthus", "experiment": "Pre-emergence herbicidal action (Example B1)", "conditions": "250 gr/ha, sprayed immediately after sowing, evaluated after 3 weeks; scale of ten ratings 10=total damage, 0=no action", "from_the_text": "as §3"}, "[17]": {"system": "Panicum", "experiment": "Pre-emergence herbicidal action (Example B1)", "conditions": "250 gr/ha, sprayed immediately after sowing, evaluated after 3 weeks; scale of ten ratings 10=total damage, 0=no action", "from_the_text": "as §3"}}, "data": [{"smiles": "COCCOCc1nc(C(F)(F)F)ccc1C(=O)C1=C(O)C2C=CC(C2)C1=O", "note": "(stereo not shown) [1.0411]", "values": [{"measurement": "Post-emergence action: Polygonum", "setting": "[1]", "value": 8}, {"measurement": "Post-emergence action: Brachiaria", "setting": "[2]", "value": 10}, {"measurement": "Post-emergence action: Galium", "setting": "[3]", "value": 6}, {"measurement": "Post-emergence action: Rottboelia", "setting": "[4]", "value": 3}, {"measurement": "Post-emergence action: Sinapis", "setting": "[5]", "value": 8}, {"measurement": "Post-emergence action: Sida", "setting": "[6]", "value": 8}, {"measurement": "herbicidal action on the weeds compared with compound A (in words)", "setting": "[7]", "value": "considerably better herbicidal action"}, {"measurement": "Post-emergence herbicidal action: Stellaria", "setting": "[8]", "value": 9}, {"measurement": "Post-emergence herbicidal action: Chenopodium", "setting": "[9]", "value": 10}, {"measurement": "Post-emergence herbicidal action: Ipomea", "setting": "[10]", "value": 10}, {"measurement": "Post-emergence herbicidal action: Amaranthus", "setting": "[11]", "value": 9}, {"measurement": "Pre-emergence herbicidal action: Echinochloa", "setting": "[12]", "value": 9}, {"measurement": "Pre-emergence herbicidal action: Chenopodium", "setting": "[13]", "value": 10}, {"measurement": "Pre-emergence herbicidal action: Kochia", "setting": "[14]", "value": 10}, {"measurement": "Pre-emergence herbicidal action: Abutilon", "setting": "[15]", "value": 10}, {"measurement": "Pre-emergence herbicidal action: Amaranthus", "setting": "[16]", "value": 10}, {"measurement": "Pre-emergence herbicidal action: Panicum", "setting": "[17]", "value": 10}]}, {"smiles": "Cc1nc(C(F)(F)F)ccc1C(=O)C1=C(O)C2C=CC(C1=O)C21CC1", "note": "(stereo not shown) [1.1153]", "values": [{"measurement": "Post-emergence herbicidal action: Stellaria", "setting": "[8]", "value": 10}, {"measurement": "Post-emergence herbicidal action: Chenopodium", "setting": "[9]", "value": 8}, {"measurement": "Post-emergence herbicidal action: Ipomea", "setting": "[10]", "value": 8}, {"measurement": "Post-emergence herbicidal action: Amaranthus", "setting": "[11]", "value": 7}]}, {"smiles": "COCCOCc1nc(C(F)(F)F)ccc1C(=O)C1C(=O)C2CCC(C2)C1=O", "note": "(stereo not shown) [A, reference compound]", "values": [{"measurement": "Post-emergence action: Polygonum", "setting": "[1]", "value": 5}, {"measurement": "Post-emergence action: Brachiaria", "setting": "[2]", "value": 4}, {"measurement": "Post-emergence action: Galium", "setting": "[3]", "value": 5}, {"measurement": "Post-emergence action: Rottboelia", "setting": "[4]", "value": 0}, {"measurement": "Post-emergence action: Sinapis", "setting": "[5]", "value": 6}, {"measurement": "Post-emergence action: Sida", "setting": "[6]", "value": 7}]}, {"smiles": "COCCOCc1nc(C(F)(F)F)ccc1C(=O)C1=C(O)C2(C)C=CC(C)(O2)C1=O", "note": "(stereo not shown) [1.0301]", "values": [{"measurement": "Post-emergence herbicidal action: Stellaria", "setting": "[8]", "value": 8}, {"measurement": "Post-emergence herbicidal action: Chenopodium", "setting": "[9]", "value": 8}, {"measurement": "Post-emergence herbicidal action: Ipomea", "setting": "[10]", "value": 8}, {"measurement": "Post-emergence herbicidal action: Amaranthus", "setting": "[11]", "value": 8}, {"measurement": "Pre-emergence herbicidal action: Echinochloa", "setting": "[12]", "value": 7}, {"measurement": "Pre-emergence herbicidal action: Chenopodium", "setting": "[13]", "value": 9}, {"measurement": "Pre-emergence herbicidal action: Kochia", "setting": "[14]", "value": 8}, {"measurement": "Pre-emergence herbicidal action: Abutilon", "setting": "[15]", "value": 7}, {"measurement": "Pre-emergence herbicidal action: Amaranthus", "setting": "[16]", "value": 8}, {"measurement": "Pre-emergence herbicidal action: Panicum", "setting": "[17]", "value": 7}]}]}
